Assay results: patent US9938261B2, “Heterocyclic compounds and methods of use thereof” (AMBIT BIOSCIENCES CORPORATION, priority 2011, dated 2018)
Like-named read-outs stand apart in the source and are kept apart here.

Key:
KIT = target: T1, KIT (Homo sapiens, UniProt P10721); experiment: Competition binding assay, KIT Kd; conditions: competition binding
T1 construct: made in house
How it was run: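 Read-out is quantitative PCR of kinase recovered from affinity beads after competition with test compound. Binding reached equilibrium over 1 hour at room temperature; Kd values come from eleven-point threefold serial dilutions.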

M-NFS-60 cells = experiment: M-NFS-60 cell proliferation assay (Alamar Blue); assay type: cell-based, mouse; conditions: M-NFS-60 cell proliferation, read-out: CSF1R M-NFS-60 CTB:IC50
How it was run: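 Mouse M-NFS-60 cells growing on 20 ng/mL M-CSF in RPMI/10% FBS were exposed to compounds (9 half-log concentrations, 0.5% DMSO) for 72 h at 37 °C. Viability read by Alamar Blue fluorescence (ex 560/em 590 nm, 3 h). IC50 = 50% proliferation inhibition versus control, mean of duplicates.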

[1] = target: kinase panel containing either 386 or 392 distinct kinases; experiment: Kinase selectivity score S10 from competition binding panel; conditions: 10 μM, panel of 386 or 392 distinct kinases
How it was run: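 Compounds at 10 μM competed against immobilised affinity ligands for T7 phage-fused or HEK-293-expressed DNA-tagged kinases, 1 h at room temperature; bound kinase eluted and quantified by qPCR. S10 = fraction of distinct non-mutant kinases with percent of DMSO control below 10.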

T1 sequence (P10721 26-976): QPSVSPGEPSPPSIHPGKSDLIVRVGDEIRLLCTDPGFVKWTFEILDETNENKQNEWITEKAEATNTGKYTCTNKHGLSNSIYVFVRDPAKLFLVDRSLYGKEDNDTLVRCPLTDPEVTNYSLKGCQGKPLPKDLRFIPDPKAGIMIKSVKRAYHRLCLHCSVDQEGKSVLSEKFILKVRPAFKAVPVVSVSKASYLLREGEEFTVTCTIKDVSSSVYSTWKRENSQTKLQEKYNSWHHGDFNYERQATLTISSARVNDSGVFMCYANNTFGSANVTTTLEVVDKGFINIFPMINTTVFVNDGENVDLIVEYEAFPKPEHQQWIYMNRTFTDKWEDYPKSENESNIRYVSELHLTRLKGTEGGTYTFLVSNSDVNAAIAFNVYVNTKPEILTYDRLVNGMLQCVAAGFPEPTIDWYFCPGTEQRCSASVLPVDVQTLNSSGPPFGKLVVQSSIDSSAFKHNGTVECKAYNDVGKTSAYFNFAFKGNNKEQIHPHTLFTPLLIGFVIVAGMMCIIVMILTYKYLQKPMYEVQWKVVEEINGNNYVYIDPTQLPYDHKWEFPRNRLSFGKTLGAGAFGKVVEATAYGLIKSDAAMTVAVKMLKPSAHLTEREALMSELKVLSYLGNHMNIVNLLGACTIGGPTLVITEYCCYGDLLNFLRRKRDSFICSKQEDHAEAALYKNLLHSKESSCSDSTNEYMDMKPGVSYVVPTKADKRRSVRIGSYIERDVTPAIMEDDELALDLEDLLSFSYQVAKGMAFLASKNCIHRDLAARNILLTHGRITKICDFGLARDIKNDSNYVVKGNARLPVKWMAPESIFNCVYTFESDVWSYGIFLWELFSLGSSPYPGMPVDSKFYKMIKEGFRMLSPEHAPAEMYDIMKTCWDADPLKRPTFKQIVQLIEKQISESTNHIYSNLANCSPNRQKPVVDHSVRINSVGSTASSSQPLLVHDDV

Structure (SMILES)	Kd (KIT) [µM]	Kinase specificity S(10) [1]	IC50 (M-NFS-60 cells; Mus musculus) [µM]	IC50 (M-NFS-60 cells) [µM]
O[C@@H]1CCCC[C@H]1Nc1nc2c(Cl)cc(Cc3cnc4ccc(N5CCOCC5)nn34)cc2s1 [Example 156, (1R,2R)-2-((4-chloro-6-((6-morpholinoimidazo[1,2-b]pyridazin-3-yl)methyl)benzo[d]thiazol-2-yl)amino)cyclohexanol]	> 2	A (A≤0.01)	0.4 to 1.5	
O[C@@H]1CCCC[C@H]1Nc1nc2ccc(Cc3cnc4ccc(-n5cccn5)cn34)cc2s1 [Example 159, (1R,2R)-2-((6-((6-(1H-pyrazol-1-yl)imidazo[1,2-a]pyridin-3-yl)methyl)benzo[d]thiazol-2-yl)amino)cyclohexanol]	0.5 to 2	A (A≤0.01)	0.4 to 1.5	
N#Cc1ccc2c(c1)ncn2Cc1ccc2nc(N[C@@H]3CCCC[C@H]3O)oc2c1 [Example 170, 1-((2-(((1R,2R)-2-hydroxycyclohexyl)amino)benzo[d]oxazol-6-yl)methyl)-1H-benzo[d]imidazole-5-carbonitrile]	> 2	A (A≤0.01)	> 1.5	
O[C@H]1CCCC[C@H]1Nc1nc2ccc(Cn3cnc4cc(F)cnc43)cc2s1 [Example 162, (1S,2R)-2-((6-((6-fluoro-3H-imidazo[4,5-b]pyridin-3-yl)methyl)benzo[d]thiazol-2-yl)amino)cyclohexanol]	0.1 to 0.5	A (A≤0.01)		0.05 to 0.4
O[C@@H]1CCCC[C@H]1Nc1nc2ccc(Cn3cnc4cc(F)c(F)cc43)cc2s1 [Example 128, (1R,2R)-2-((6-((5,6-difluoro-1H-benzo[d]imidazol-1-yl)methyl)benzo[d]thiazol-2-yl)amino)cyclohexanol]	0.1 to 0.5	B (0.01<B≤0.02)	0.4 to 1.5	
O=C(c1ccn2c(Cc3ccc4nc(N[C@@H]5CCCC[C@H]5O)sc4c3)cnc2c1)N1CCCC1 [Example 223, (3-((2-(((1R,2R)-2-hydroxycyclohexyl)amino)benzo[d]thiazol-6-yl)methyl)imidazo[1,2-a]pyridin-7-yl)(pyrrolidin-1-yl)methanone]	0.1 to 0.5	A (A≤0.01)	0.05 to 0.4	
O[C@H]1CC[C@H](Nc2nc3ccc(Cn4cnc5cc(F)cnc54)cc3s2)CC1 [Example 163, trans-4-((6-((6-fluoro-3H-imidazo[4,5-b]pyridin-3-yl)methyl)benzo[d]thiazol-2-yl)amino)cyclohexanol]	0.1 to 0.5	A (A≤0.01)	> 1.5	
CS(=O)(=O)c1ccc2c(c1)ncn2Cc1ccc2nc(N[C@@H]3CCCC[C@H]3O)sc2c1 [Example 112, (1R,2R)-2-((6-((5-(methylsulfonyl)-1H-benzo[d]imidazol-1-yl)methyl)benzo[d]thiazol-2-yl)amino)cyclohexanol]	0.5 to 2	A (A≤0.01)	> 1.5	
CS(=O)(=O)c1ccc2ncn(Cc3ccc4nc(N[C@@H]5CCCC[C@H]5O)sc4c3)c2c1 [Example 113, (1R,2R)-2-((6-((6-(methylsulfonyl)-1H-benzo[d]imidazol-1-yl)methyl)benzo[d]thiazol-2-yl)amino)cyclohexanol]	0.5 to 2	A (A≤0.01)	> 1.5	
O=c1c(N2CCOCC2)nccn1Cc1ccc2nc(N[C@@H]3CCCC[C@H]3O)sc2c1 [Example 222, 1-((2-(((1R,2R)-2-hydroxycyclohexyl)amino)benzo[d]thiazol-6-yl)methyl)-3-morpholinopyrazin-2(1H)-one]	> 2	A (A≤0.01)	> 1.5	
O[C@@H]1CCCC[C@H]1Nc1nc2ccc(Cn3cnc4cccnc43)c(F)c2s1 [Example 164, (1R,2R)-2-((6-((3H-imidazo[4,5-b]pyridin-3-yl)methyl)-7-fluorobenzo[d]thiazol-2-yl)amino)cyclohexanol]	> 2	A (A≤0.01)	0.4 to 1.5	
COc1ccc2ncc(Cc3ccc4nc(N[C@@H]5CCCC[C@H]5O)sc4c3)n2c1 [Example 165, (1R,2R)-2-((6-((6-methoxyimidazo[1,2-a]pyridin-3-yl)methyl)benzo[d]thiazol-2-yl)amino)cyclohexanol]	0.5 to 2	A (A≤0.01)	0.4 to 1.5	
COc1nc2c(cc1C#N)ncn2Cc1ccc2nc(N[C@@H]3CCCC[C@H]3O)sc2c1 [Example 126, 3-((2-(((1R,2R)-2-hydroxycyclohexyl)amino)benzo[d]thiazol-6-yl)methyl)-5-methoxy-3H-imidazo[4,5-b]pyridine-6-carbonitrile]	0.1 to 0.5	A (A≤0.01)	0.05 to 0.4	
O[C@@H]1CCCC[C@H]1Nc1nc2ccc(Cc3cnc4cnccn34)cc2s1 [Example 125, (1R,2R)-2-((6-(imidazo[1,2-a]pyrazin-3-ylmethyl)benzo[d]thiazol-2-yl)amino)cyclohexanol]	0.5 to 2	B (0.01<B≤0.02)	0.4 to 1.5	
O[C@@H]1CCCC[C@H]1Nc1nc2c(Br)cc(Cn3cnc4cccnc43)cc2s1 [Example 166, (1R,2R)-2-((6-((3H-imidazo[4,5-b]pyridin-3-yl)methyl)-4-bromobenzo[d]thiazol-2-yl)amino)cyclohexanol]	0.5 to 2	A (A≤0.01)	0.4 to 1.5	

Further lines, with some results ahead:

Kd (KIT) [µM]	Kinase specificity S(10) [1]	Structure (SMILES)	IC50 (M-NFS-60 cells; Mus musculus) [µM]	IC50 (M-NFS-60 cells) [µM]
0.1 to 0.5	A (A≤0.01)	OC[C@@H]1CCCC[C@H]1Nc1nc2ccc(Cn3cnc4cc(Br)cnc43)cc2s1 [Example 133, ((1R,2R)-2-((6-((6-bromo-3H-imidazo[4,5-b]pyridin-3-yl)methyl)benzo[d]thiazol-2-yl)amino)cyclohexyl)methanol]	0.05 to 0.4	
0.1 to 0.5	A (A≤0.01)	Cc1ccc2c(c1)ncn2Cc1ccc2nc(N[C@@H]3CCCC[C@H]3O)sc2c1 [Example 127, (1R,2R)-2-((6-((5-methyl-1H-benzo[d]imidazol-1-yl)methyl)benzo[d]thiazol-2-yl)amino)cyclohexanol]	0.05 to 0.4	
0.1 to 0.5	B (0.01<B≤0.02)	CNC(=O)c1ccc2c(c1)ncn2Cc1ccc2nc(N[C@@H]3CCCC[C@H]3O)sc2c1 [Example 173, 1-((2-(((1R,2R)-2-hydroxycyclohexyl)amino)benzo[d]thiazol-6-yl)methyl)-N-methyl-1H-benzo[d]imidazole-5-carboxamide]	0.05 to 0.4	
≤ 0.1	B (0.01<B≤0.02)	O[C@@H]1CCCC[C@H]1Nc1nc2ccc(Cn3cnc4cc(-n5cccn5)cnc43)cc2s1 [Example 141, (1R,2R)-2-((6-((6-(1H-pyrazol-1-yl)-3H-imidazo[4,5-b]pyridine-3-yl)methyl)benzo[d]thiazol-2-yl)amino)cyclohexanol]	≤ 0.05	
0.1 to 0.5	B (0.01<B≤0.02)	Cn1nnc(-c2ccc3c(c2)ncn3Cc2ccc3nc(N[C@@H]4CCCC[C@H]4O)sc3c2)n1 [Example 227, (1R,2R)-2-((6-((5-(2-methyl-2H-tetrazol-5-yl)-1H-benzo[d]imidazol-1-yl)methyl)benzo[d]thiazol-2-yl)amino)cyclohexanol]	≤ 0.05	
0.1 to 0.5	A (A≤0.01)	N#Cc1cc2ncn(Cc3ccc4nc(N[C@@H]5CCCC[C@H]5O)sc4c3)c2nc1C#N [Example 139, 3-((2-(((1R,2R)-2-hydroxycyclohexyl)amino)benzo[d]thiazol-6-yl)methyl)-3H-imidazo[4,5-b]pyridine-5,6-dicarbonitrile]	0.4 to 1.5	
0.1 to 0.5	A (A≤0.01)	C#Cc1ccc2ncn(Cc3ccc4nc(N[C@@H]5CCCC[C@H]5O)sc4c3)c2c1 [Example 122, (1R,2R)-2-((6-((6-ethynyl-1H-benzo[d]imidazol-1-yl)methyl)benzo[d]thiazol-2-yl)amino)cyclohexanol]	0.05 to 0.4	
≤ 0.1	B (0.01<B≤0.02)	N#Cc1cnc2c(c1)ncn2Cc1ccc2nc(N[C@@H]3CCCC[C@H]3O)oc2c1 [Example 124, 3-((2-(((1R,2R)-2-hydroxycyclohexyl)amino)benzo[d]oxazol-6-yl)methyl)-3H-imidazo[4,5-b]pyridine-6-carbonitrile]	0.05 to 0.4	
≤ 0.1	B (0.01<B≤0.02)	O[C@@H]1CCCC[C@H]1Nc1nc2ccc(Cc3cnc4ccc(N5CCOCC5)nn34)cc2s1 [Example 155, (1R,2R)-2-((6-((6-morpholinoimidazo[1,2-b]pyridazin-3-yl)methyl)benzo[d]thiazol-2-yl)amino)cyclohexanol]	0.05 to 0.4	
≤ 0.1	A (A≤0.01)	O[C@@H]1[C@H](O)CCC[C@H]1Nc1nc2ccc(Cc3cnc4cc(-n5cccn5)ccn34)cc2s1 [Example 229, (1R,2S,3R)-3-((6-((7-(1H-pyrazol-1-yl)imidazo[1,2-a]pyridin-3-yl)methyl)benzo[d]thiazol-2-yl)amino)cyclohexane-1,2-diol]	0.05 to 0.4	
≤ 0.1	A (A≤0.01)	CCOc1ccc2c(c1)ncn2Cc1ccc2nc(N[C@@H]3CCCC[C@H]3O)sc2c1 [Example 138, (1R,2R)-2-((6-((5-ethoxy-1H-benzo[d]imidazol-1-yl)methyl)benzo[d]thiazol-2-yl)amino)cyclohexanol]	≤ 0.05	
